Experimental data: patent publication US4472304A, “(Amido)N-substituted bleomycins, salts thereof and process for preparation thereof” (Nippon Kayaku Kabushiki Kaisha, priority 1981, dated 1984)
≈ marks a conversion by molar mass, not a printed value.

How the values were obtained:
[1] = test system: Mycobacterium smegmatis ATCC 607; assay: Antimicrobial activity against Mycobacterium smegmatis ATCC 607 (agar plate-cylinder); type: cell-based; conditions: standard bleomycin A2 (copper-free) assumed 1,000 mcg potency/mg
Procedure: (§1) 2. ANT[…] MYC[…] ATCC 607 AND BACILLUS SUBTILIS
(§2) The antimicrobial activity was tested against the captioned test organisms by the method of agar plate-cylinder. The activity was recorded on the assumption that the activity of standard sample of bleomycin A2 (copper-free form) is 1,000 mcg poteney/mg.

Bacillus subtilis = assay: Antimicrobial activity against Bacillus subtilis (agar plate-cylinder); type: cell-based; conditions: standard bleomycin A2 (copper-free) assumed 1,000 mcg potency/mg
Procedure: as §1, §2

HeLa S3 cells = assay: Growth inhibitory activity against cultured HeLa S3 cells; type: cell-based; conditions: 3 days; for IC50: Homo sapiens, HeLa S3, 72 h, Cu-free, read-out: 50% Growth inhibitory concentration of Cu-free compd. against cultured HeLaS3 cells (ID50)
Procedure: 3. GROWTH INHIBITORY ACTIVITY AGAINST CULTURED HELA S3 CELLS
HeLa S3 cells were inoculated into a medium (MEM with 10% bovine serum) placed in a plastic petri dish. Two days thereafter, a bleomycin was added to the dish. After 3 days of breeding, the number of cells were counted. The percentage growth inhibition was calculated using the following equation:
Percentage inhibition (%)=100×(B-A)/(B-C) where A is the final number of cells after 3 days from the addition of test sample, B is the final number of cells in the control without addition of the test smaple, and C is the number of cells at the time of addition of the test sample.

[2] = biological target: T1, bleomycin-inactivating enzyme (Rattus norvegicus, UniProt P70645); assay: in vitro; conditions: liver extract
T1 sequence (P70645 1-454): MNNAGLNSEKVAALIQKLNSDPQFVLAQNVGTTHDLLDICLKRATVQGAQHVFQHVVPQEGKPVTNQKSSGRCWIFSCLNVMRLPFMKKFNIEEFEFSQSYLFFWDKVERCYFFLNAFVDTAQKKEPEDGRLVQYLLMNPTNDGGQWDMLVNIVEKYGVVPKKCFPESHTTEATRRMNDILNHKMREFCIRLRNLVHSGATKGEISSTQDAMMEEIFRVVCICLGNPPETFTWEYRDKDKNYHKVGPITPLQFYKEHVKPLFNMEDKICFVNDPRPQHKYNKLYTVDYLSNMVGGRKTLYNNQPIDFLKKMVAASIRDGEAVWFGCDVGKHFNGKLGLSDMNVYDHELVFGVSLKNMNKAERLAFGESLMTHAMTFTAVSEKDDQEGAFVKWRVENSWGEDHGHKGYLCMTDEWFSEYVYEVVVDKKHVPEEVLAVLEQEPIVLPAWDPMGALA

[3] = CDF1/SLC male mice, s.c. once a day for 10 days, Behrens-Karber, daily dose
Procedure: From the mortality during the administration period, LD50 (daily dose) was determined by the method of Behrens-Karber.

pulmonary fibrosis = assay: Pulmonary toxicity (pulmonary fibrosis) in mice; conditions: for Incidence: Number of mice with pulmonary fibrosis (%) / Incidence: Number of mice with pulmonary fibrosis / Grade: Total score of pulmonary fibrosis/total number of samples / Grade: Total score of pulmonary fibrosis/total number of samples (%): ICR mice, 5 mg/kg i.p. once a day for 10 days; for Incidence: Number of mice with pulmonary fibrosis (%) / Incidence: Number of mice with pulmonary fibrosis: 5 weeks observation; for Incidence: Number of mice with pulmonary fibrosis: mice with fibrosis/total; for Grade: Total score of pulmonary fibrosis/total number of samples / Grade: Total score of pulmonary fibrosis/total number of samples (%): points 0, 1, 2, 4, 6; for Ratio (by comparison with "Bleomycin Complex"): versus Bleomycin Complex

Row | Compound | Antimicrobial potency of Cu-free compound against Mycobacterium smegmatis ATCC 607 [1] [mcg potency/mg] | Antimicrobial potency of Cu-free compound against Bacillus subtilis (Bacillus subtilis) [mcg potency/mg] | 50% Growth inhibitory concentration of Cu-free compd. against cultured HeLaS3 cells (ID50) (HeLa S3 cells) [µg/mL] | IC50 (HeLa S3 cells) [µg/mL] | metabolised at 40 min [2] [%] | LD50 during administration period of 10 consecutive days [3] [mg/kg/day] | Incidence: Number of mice with pulmonary fibrosis (%) (pulmonary fibrosis) | Incidence: Number of mice with pulmonary fibrosis (pulmonary fibrosis) | Grade: Total score of pulmonary fibrosis/total number of samples (pulmonary fibrosis) | Grade: Total score of pulmonary fibrosis/total number of samples (%) (pulmonary fibrosis) | Ratio (by comparison with "Bleomycin Complex") (pulmonary fibrosis)
1 | 3-((S)-1'-phenylethylamino)propylamino-(amido)N--[1,6-dimethyl-heptyl]-BLM [Compound 32] | 39956 | 298 | 0.83 | – | – | – | – | – | – | – | –
2 | 4-Guanidinobutylamino-(amido)N--[1',6'-dimethylheptyl]-BLM [Compound 8] | 24880 | 950 | 0.62 | – | – | – | – | – | – | – | –
3 | CNC(=O)C(N)CNC(CC(N)=O)c1nc(N)c(C)c(C(=O)NC(C(=O)NC(C)C(O)C(C)C(=O)NC(C(=O)NCCc2nc(-c3nc(C(=O)NCCc4c[nH]cn4)cs3)cs2)C(C)O)C(OC2OC(CO)C(O)C(O)C2OC2OC(CO)C(O)C(OC(N)=O)C2O)c2cnc[nH]2)n1 (stereo not shown) [Compound 1, 2-(4'-Imidazolyl)ethylamino-(amido)N--[methyl]-BLM] | 1447 | 654 | – | 1.2 (≈ 0.845 µM) | 5 to 14 | – | – | – | – | – | –
4 | CCNC(=O)C(N)CNC(CC(N)=O)c1nc(N)c(C)c(C(=O)NC(C(=O)NC(C)C(O)C(C)C(=O)NC(C(=O)NCCc2nc(-c3nc(C(=O)NCCc4c[nH]cn4)cs3)cs2)C(C)O)C(OC2OC(CO)C(O)C(O)C2OC2OC(CO)C(O)C(OC(N)=O)C2O)c2cnc[nH]2)n1 (stereo not shown) [Compound 2, 2-(4'-Imidazolyl)ethylamino-(amido)N--[ethyl]-BLM] | 1895 | 767 | – | 0.98 (≈ 0.683 µM) | 15 to 24 | – | – | – | – | – | –
5 | Cc1c(N)nc(C(CC(N)=O)NCC(N)C(=O)NCCCNC(C)c2ccccc2)nc1C(=O)NC(C(=O)NC(C)C(O)C(C)C(=O)NC(C(=O)NCCc1nc(-c2nc(C(=O)NCCC[N+](C)(C)CCCN(Cc3ccccc3)Cc3ccccc3)cs2)cs1)C(C)O)C(OC1OC(CO)C(O)C(O)C1OC1OC(CO)C(O)C(OC(N)=O)C1O)c1cnc[nH]1 [Compound 52, 3-{N,N--dimethyl-N--[dibenzylamino)propyl]amino}-propylamino-(amido)N--[3-((S)-1'-phenyl)aminopropyl]-BLM] | 21371 | 2372 | – | – | – | 13.9 | 0 | 0/9 | 0/27 | 0 | 0
6 | CCCCCCCCNC(=O)C(N)CNC(CC(N)=O)c1nc(N)c(C)c(C(=O)NC(C(=O)NC(C)C(O)C(C)C(=O)NC(C(=O)NCCc2nc(-c3nc(C(=O)NCCC[N+](C)(C)CCCN(Cc4ccccc4)Cc4ccccc4)cs3)cs2)C(C)O)C(OC2OC(CO)C(O)C(O)C2OC2OC(CO)C(O)C(OC(N)=O)C2O)c2cnc[nH]2)n1 (stereo not shown) [Compound 53, 3-{N,N--dimethyl-N--[3-(dibenzylamino)propyl]amino}-propylamino-(amido)N--[n-octyl]-BLM] | 40703 | 595 | – | – | – | 15.0 | 0 | 0/9 | 0/27 | 0 | 0
7 | Cc1c(N)nc(C(CC(N)=O)NCC(N)C(=O)NCCCNC(C)c2ccccc2)nc1C(=O)NC(C(=O)NC(C)C(O)C(C)C(=O)NC(C(=O)NCCc1nc(-c2nc(C(=O)NCCCN(C)CCCNCC3CCCCCCC3)cs2)cs1)C(C)O)C(OC1OC(CO)C(O)C(O)C1OC1OC(CO)C(O)C(OC(N)=O)C1O)c1cnc[nH]1 [Compound 60, 3-{N--methyl-N--[3-(cyclooctylmethyl)aminopropyl]amino}-propylamino-(amido)N--[3-((S)-1'-phenylethylamino)propyl]-BLM] | 54345 | 7273 | – | – | – | – | 0 | 0/9 | 0/27 | 0 | 0
8 | CCCCCCCCNC(=O)C(N)CNC(CC(N)=O)c1nc(N)c(C)c(C(=O)NC(C(=O)NC(C)C(O)C(C)C(=O)NC(C(=O)NCCc2nc(-c3nc(C(=O)NCCCN(C)CCCNCc4ccc(C#N)cc4)cs3)cs2)C(C)O)C(OC2OC(CO)C(O)C(O)C2OC2OC(CO)C(O)C(OC(N)=O)C2O)c2cnc[nH]2)n1 (stereo not shown) [Compound 62, 3-{N--methyl-N--[3-(p-cyanobenzylamino)propyl]amino}propylamino-(amido)N--[octyl]-BLM] | 49270 | 381 | – | – | – | – | 0 | 0/9 | 0/27 | 0 | 0
9 | Cc1c(N)nc(C(CC(N)=O)NCC(N)C(=O)NCCCNC(C)c2ccccc2)nc1C(=O)NC(C(=O)NC(C)C(O)C(C)C(=O)NC(C(=O)NCCc1nc(-c2nc(C(=O)NCCCN(C)CCCN(Cc3ccc(OCc4ccccc4)c(OCc4ccccc4)c3)Cc3ccc(OCc4ccccc4)c(OCc4ccccc4)c3)cs2)cs1)C(C)O)C(OC1OC(CO)C(O)C(O)C1OC1OC(CO)C(O)C(OC(N)=O)C1O)c1cnc[nH]1 [Compound 64, 3-{N--methyl-N--[3-bis(m,p-dibenzyloxybenzyl)aminopropyl]amino}-propylamino-(amido)N--[3-((S)-1'-phenylethyl)aminopropyl]-BLM] | 115 | 23 | – | – | – | > 81.4 | 0 | 0/9 | 0/27 | 0 | 0
10 | CCCCCCCCNC(=O)C(N)CNC(CC(N)=O)c1nc(N)c(C)c(C(=O)NC(C(=O)NC(C)C(O)C(C)C(=O)NC(C(=O)NCCc2nc(-c3nc(C(=O)NCCCN(C)CCCN(Cc4ccc(OCc5ccccc5)c(OCc5ccccc5)c4)Cc4ccc(OCc5ccccc5)c(OCc5ccccc5)c4)cs3)cs2)C(C)O)C(OC2OC(CO)C(O)C(O)C2OC2OC(CO)C(O)C(OC(N)=O)C2O)c2cnc[nH]2)n1 (stereo not shown) [Compound 65, 3-{N--methyl-N--[3-bis(m,p-dibenzyloxybenzyl)aminopropyl]amino}-propylamino-(amido)N--[n-octyl]-BLM] | 153 | 13 | – | – | – | > 75.7 | 0 | 0/9 | 0/27 | 0 | 0
11 | Cc1c(N)nc(C(CC(N)=O)NCC(N)C(N)=O)nc1C(=O)NC(C(=O)NC(C)C(O)C(C)C(=O)NC(C(=O)NCCc1nc(-c2nc(C(=O)NCCCCNC(=N)N)cs2)cs1)C(C)O)C(OC1OC(CO)C(O)C(O)C1OC1OC(CO)C(O)C(OC(N)=O)C1O)c1cnc[nH]1 (stereo not shown) [bleomycin B2, reference compound] | – | – | – | – | 50 | – | – | – | – | – | –
